The target of assay [1] is T1, human M2 receptor (Homo sapiens, UniProt P08172).
T1 sequence (P08172 1-466): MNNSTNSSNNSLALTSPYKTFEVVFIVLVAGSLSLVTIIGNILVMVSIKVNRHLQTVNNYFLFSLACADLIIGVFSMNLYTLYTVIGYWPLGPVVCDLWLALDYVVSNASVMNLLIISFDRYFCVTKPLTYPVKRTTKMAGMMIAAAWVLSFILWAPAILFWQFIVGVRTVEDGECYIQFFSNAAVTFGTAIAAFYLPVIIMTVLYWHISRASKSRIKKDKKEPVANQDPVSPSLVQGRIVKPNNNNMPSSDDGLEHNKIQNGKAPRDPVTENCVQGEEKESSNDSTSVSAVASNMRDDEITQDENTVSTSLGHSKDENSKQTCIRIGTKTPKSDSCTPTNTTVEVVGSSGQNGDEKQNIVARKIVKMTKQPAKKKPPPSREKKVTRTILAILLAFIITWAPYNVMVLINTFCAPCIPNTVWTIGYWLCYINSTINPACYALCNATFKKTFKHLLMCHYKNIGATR
The assay is classed as cell-based. The settings on record: shift in the acetylcholine dose-response curve (Allosteric EC50 shift, GraphPad PRISM); α >1 = positive cooperativity.

The target in assay [2] is T1, human M2 receptor. The settings on record: for EC50: acetylcholine at EC20, allosteric potency, in some cases mean values from two or more determinations; for Emax: read-out: Efficiency.
Setting [3] is: Receptor activity EC50, M2-GIRK1/4 activation test.

As a reminder, the EC50 is the concentration at which the effect is half-maximal.

Like-named read-outs stand apart in the source and are kept apart here.

In the case of `COC(=O)N1CCN(c2ccc3c(=O)c(C(=O)Nc4c(Cl)cccc4Cl)cn(-c4ccc(F)cc4F)c3n2)CC1` [Example 164, Methyl 4-{6-[(2,6-dichlorophenyl)carbamoyl]-8-(2,4-difluorophenyl)-5-oxo-5,8-dihydro-1,8-naphthyridin-2-yl}piperazine-1-carboxylate], the “Cooperativity (alpha factor)” value at human M2 receptor [1] worked out at 21. The compound also displayed an EC50 at human M2 receptor [2] (setting [3]) of 31 nM.
For `O=C(NC12CC3CC(CC(C3)C1)C2)c1cn(-c2ccc(F)cc2F)c2nc(N3CCC3=O)ccc2c1=O` [Example 168] the same measures were 13 and 60 nM.
Take `CCC(NC(=O)c1cn(-c2ccc(F)cc2F)c2nc(N3C[C@@H](O)CC3=O)ccc2c1=O)C(F)(F)F` (some centres unmarked) [Example 176]: the “Cooperativity (alpha factor)” value at human M2 receptor [1] stood at 28. Besides, at human M2 receptor [2] (setting [3]), a half-maximal response (EC50) required 95 nM. In addition, the Emax on human M2 receptor [2] came to 94.1%.
Take `CCC(NC(=O)c1cn(-c2ccc(F)cc2F)c2nc(N3CCCC3=O)ccc2c1=O)C(F)(F)F` (centres unmarked) [Example 177]: the “Cooperativity (alpha factor)” value on human M2 receptor [1] turned out to be 5. The midpoint of the response at human M2 receptor [2] (setting [3]), the EC50, lay at 138 nM.
For `CC12CCC(NC(=O)c3cn(-c4ccc(F)cc4F)c4nc(N5CC(O)CC5=O)ccc4c3=O)(CC1)CC2` (centres unmarked) [Example 181] the same measures were 36 and 59 nM.
Taken in the same sequence, the figures for `O=C(NC12CC3CC(CC(C3)C1)C2)c1cn(-c2ccc(F)cc2F)c2nc(N3CC(F)CC3=O)ccc2c1=O` (centres unmarked) [Example 187, 1-(2,4-Difluorophenyl)-7-[4-fluoro-2-oxopyrrolidin-1-yl]-4-oxo-N-(tricyclo[3.3.1.1^3,7]dec-1-yl)-1,4-dihydro-1,8-naphthyridine-3-carboxamide] were 10 and 98 nM.
Taken in the same sequence, the figures for `CC(C)(NC(=O)c1cn(-c2ccc(F)cc2F)c2nc(N3CC[C@@H](OC(F)F)C3)ccc2c1=O)c1c(F)cccc1F` [Example 188, 7-[(3R)-3-(Difluoromethoxy)pyrrolidin-1-yl]-1-(2,4-difluorophenyl)-N-[2-(2,6-difluorophenyl)propan-2-yl]-4-oxo-1,4-dihydro-1,8-naphthyridine-3-carboxamide] were 9 and 113 nM.
For the compound `CC[C@@H](NC(=O)c1cn(-c2ccc(F)cc2F)c2nc(N3C[C@@H]4C(COC)[C@@H]4C3)ccc2c1=O)C(F)(F)F` (stereo partly drawn) [Example 190, 1-(2,4-Difluorophenyl)-7-[(1R,5S)-6-(methoxymethyl)-3-azabicyclo[3.1.0]hex-3-yl]-4-oxo-N-[(2R)-1,1,1-trifluorobutan-2-yl]-1,4-dihydro-1,8-naphthyridine-3-carboxamide], the “Cooperativity (alpha factor)” value on human M2 receptor [1] was 12. The same compound returned an EC50 at human M2 receptor [2] (setting [3]) of 46 nM.
For `CC[C@@H](NC(=O)c1cn(-c2ccc(F)cc2F)c2nc(N3CCCC3)ccc2c1=O)C(F)(F)F` [Example 192, 1-(2,4-Difluorophenyl)-4-oxo-7-(pyrrolidin-1-yl)-N-[(2R)-1,1,1-trifluorobutan-2-yl]-1,4-dihydro-1,8-naphthyridine-3-carboxamide], the “Cooperativity (alpha factor)” value on human M2 receptor [1] amounted to 9. The same compound gave an EC50 at human M2 receptor [2] (setting [3]) of 54 nM.
For `CC[C@@H](NC(=O)c1cn(-c2ccc(F)cc2F)c2nc(N3C[C@@H](OC)CC3=O)ccc2c1=O)C(F)(F)F` [Example 193, 1-(2,4-Difluorophenyl)-7-[(4S)-4-methoxy-2-oxopyrrolidin-1-yl]-4-oxo-N-[(2R)-1,1,1-trifluorobutan-2-yl]-1,4-dihydro-1,8-naphthyridine-3-carboxamide] the same measures were 50 and 36 nM.
Taken in the same sequence, the figures for `O=C(Nc1c(Cl)cccc1Cl)c1cn(-c2ccc(F)cc2F)c2nc(N3CC[C@H](O)C3=O)ccc2c1=O` [Example 202, N-(2,6-Dichlorophenyl)-1-(2,4-difluorophenyl)-7-[(3S)-3-hydroxy-2-oxopyrrolidin-1-yl]-4-oxo-1,4-dihydro-1,8-naphthyridine-3-carboxamide] were 18 and 89 nM.
For the compound `CC[C@H](NC(=O)c1cn(-c2ccccc2F)c2nc(N(C)C)ccc2c1=O)C(F)(F)F` [Example 203, 7-(Dimethylamino)-1-(2-fluorophenyl)-4-oxo-N-[(2S)-1,1,1-trifluorobutan-2-yl]-1,4-dihydro-1,8-naphthyridine-3-carboxamide], the “Cooperativity (alpha factor)” value at human M2 receptor [1] was 8. For the same compound, the EC50 at human M2 receptor [2] (setting [3]) was found to be 62 nM.
For `CC[C@@H](NC(=O)c1cn(-c2ccc(F)cc2F)c2nc(N3CCC3=O)ccc2c1=O)C(F)(F)F` [Example 205, 1-(2,4-Difluorophenyl)-4-oxo-7-(2-oxoazetidin-1-yl)-N-[(2R)-1,1,1-trifluorobutan-2-yl]-1,4-dihydro-1,8-naphthyridine-3-carboxamide] the same measures were 4 and 105 nM.
For the compound `O=C(NC(c1ccccc1Cl)C(F)(F)F)c1cn(-c2ccc(F)cc2F)c2nc(N3CC[C@H](F)C3)ccc2c1=O` (stereo partly drawn) [Example 217, N-[1-(2-Chlorophenyl)-2,2,2-trifluoroethyl]-1-(2,4-difluorophenyl)-7-[(3S)-3-fluoropyrrolidin-1-yl]-4-oxo-1,4-dihydro-1,8-naphthyridine-3-carboxamide], the “Cooperativity (alpha factor)” value at human M2 receptor [1] worked out at 18. Also, the concentration giving a half-maximal response (EC50) on human M2 receptor [2] (setting [3]) is 36 nM.
Turning to `CCC(COC(F)(F)F)NC(=O)c1cn(-c2ccc(F)cc2F)c2nc(N3C[C@@H](O)CC3=O)ccc2c1=O` (stereo partly drawn) [Example 234, 1-(2,4-Difluorophenyl)-7-[(4S)-4-hydroxy-2-oxopyrrolidin-1-yl]-4-oxo-N-[1-(trifluoromethoxy)butan-2-yl]-1,4-dihydro-1,8-naphthyridine-3-carboxamide], the “Cooperativity (alpha factor)” value on human M2 receptor [1] is listed as 28. On human M2 receptor [2] (setting [3]), a half-maximal effect (EC50) was put at 75 nM.
`CC[C@@H](NC(=O)c1cn(-c2ccccc2F)c2nc(N3C[C@@H](O)CC3=O)ccc2c1=O)C(F)(F)F` [Example 239, 1-(2-Fluorophenyl)-7-[(4S)-4-hydroxy-2-oxopyrrolidin-1-yl]-4-oxo-N-[(2R)-1,1,1-trifluorobutan-2-yl]-1,4-dihydro-1,8-naphthyridine-3-carboxamide]: at human M2 receptor [1], the “Cooperativity (alpha factor)” value is 30. A half-maximal response at human M2 receptor [2] (setting [3]) (EC50) required 112 nM. Also, the Emax on human M2 receptor [2] was 99.3%.
With `CC[C@H](NC(=O)c1cn(-c2ccc(F)cc2F)c2nc(N3C[C@@H](C(=O)OC)OC3=O)ccc2c1=O)C(F)(F)F` [Example 258, Methyl (5S)-3-[8-(2,4-difluorophenyl)-5-oxo-6-{[(2S)-1,1,1-trifluorobutan-2-yl]carbamoyl}-5,8-dihydro-1,8-naphthyridin-2-yl]-2-oxo-1,3-oxazolidine-5-carboxylate], at human M2 receptor [1], the “Cooperativity (alpha factor)” value amounted to 30. At human M2 receptor [2] (setting [3]), this compound had a 50% effective concentration (EC50) of 147 nM.
Taken in the same sequence, the figures for `CC[C@H](NC(=O)c1cn(-c2ccc(F)cc2F)c2nc(N3C[C@H](C(=O)OC)OC3=O)ccc2c1=O)C(F)(F)F` [Example 259, Methyl (5R)-3-[8-(2,4-difluorophenyl)-5-oxo-6-{[(2S)-1,1,1-trifluorobutan-2-yl]carbamoyl}-5,8-dihydro-1,8-naphthyridin-2-yl]-2-oxo-1,3-oxazolidine-5-carboxylate] were 14 and 560 nM.
On to `CC[C@@H](NC(=O)c1cn(-c2ccc(F)cc2F)c2nc(N3CC(O)C3)ccc2c1=O)C(F)(F)F` [Example 261, 1-(2,4-Difluorophenyl)-7-(3-hydroxyazetidin-1-yl)-4-oxo-N-[(2R)-1,1,1-trifluorobutan-2-yl]-1,4-dihydro-1,8-naphthyridine-3-carboxamide], for which the “Cooperativity (alpha factor)” value on human M2 receptor [1] stood at 13. The same compound showed an EC50 on human M2 receptor [2] (setting [3]) of 75 nM.
For the compound `CC[C@@H](NC(=O)c1cn(-c2ccc(F)cc2F)c2nc(N3CC(O)(C(F)(F)F)C3)ccc2c1=O)C(F)(F)F` [Example 262, 1-(2,4-Difluorophenyl)-7-[3-hydroxy-3-(trifluoromethyl)azetidin-1-yl]-4-oxo-N-[(2R)-1,1,1-trifluorobutan-2-yl]-1,4-dihydro-1,8-naphthyridine-3-carboxamide], the “Cooperativity (alpha factor)” value on human M2 receptor [1] stood at 27. At human M2 receptor [2] (setting [3]), this compound returned a 50% effective concentration (EC50) of 72 nM.
For the compound `CC[C@@H](NC(=O)c1cn(-c2c(F)cc(F)cc2F)c2nc(N3CCC(O)C3=O)ccc2c1=O)C(F)(F)F` (stereo partly drawn) [Example 282, 7-[3-Hydroxy-2-oxopyrrolidin-1-yl-4-oxo-N-[(2R)-1,1,1-trifluorobutan-2-yl]-4-oxo-N-trifluorobutan-2-yl]-1-(2,4,6-trifluorophenyl)-1,4-dihydro-1,8-naphthyridine-3-carboxamide], the “Cooperativity (alpha factor)” value on human M2 receptor [1] amounted to 32. For the same compound, at human M2 receptor [2] (read-out: Receptor activity EC50, M2-GIRK1/4 activation test), the 50% effective concentration (EC50) was found to be 21 nM.
For `CC[C@H](NC(=O)c1cn(-c2ccc(F)cc2F)c2nc(N3C[C@H](O)CC3=O)ccc2c1=O)C(F)(F)F` [Example 285, 1-(2,4-Difluorophenyl)-7-[(4R)-4-hydroxy-2-oxopyrrolidin-1-yl]-4-oxo-N-[(2S)-1,1,1-trifluorobutan-2-yl]-1,4-dihydro-1,8-naphthyridine-3-carboxamide], the “Cooperativity (alpha factor)” value at human M2 receptor [1] amounted to 23. At human M2 receptor [2] (setting [3]), this compound had a concentration for a half-maximal effect (EC50) of 598 nM. Moreover, the Emax on human M2 receptor [2] was determined as 79.9%.
